Measurements: ChEMBL document CHEMBL1129432, “Structure-activity relationships of a series of novel (piperazinylbutyl)thiazolidinone antipsychotic agents related to 3-[4-[4-(6-fluorobenzo[b]thien-3-yl)-1-piperazinyl]butyl]-2,5,5- trimethyl-4-thiazolidinone maleate” (J Med Chem, 1996)

How the values were obtained:
[1] = biological target: T1, 5-hydroxytryptamine receptor 1A (Rattus norvegicus, UniProt P19327); test: Binding affinity towards serotonin 5-HT1A receptor was determined in rat hippocampus using [3H]8-OH-DPAT as ligand; type: tissue-based
T1 sequence (P19327 whole entry): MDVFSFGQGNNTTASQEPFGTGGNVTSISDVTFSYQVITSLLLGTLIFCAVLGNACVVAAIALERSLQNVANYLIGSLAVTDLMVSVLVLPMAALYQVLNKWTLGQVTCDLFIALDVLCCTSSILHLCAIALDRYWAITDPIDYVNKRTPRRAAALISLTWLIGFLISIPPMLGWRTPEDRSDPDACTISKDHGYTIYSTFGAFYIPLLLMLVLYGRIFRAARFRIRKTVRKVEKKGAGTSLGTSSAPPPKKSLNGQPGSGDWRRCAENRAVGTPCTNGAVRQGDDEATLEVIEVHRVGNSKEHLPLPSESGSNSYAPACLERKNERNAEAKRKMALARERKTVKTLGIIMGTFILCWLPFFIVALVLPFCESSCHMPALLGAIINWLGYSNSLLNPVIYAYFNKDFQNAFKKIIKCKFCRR

[2] = biological target: Serotonin 2 (5-HT2) receptor (Rattus norvegicus, UniProt P30994+P08909+P14842); test: Binding affinity towards serotonin 5-HT2 receptor was determined in rat cortex using [3H]spiperone as ligand
[3] = biological target: T2, 5-hydroxytryptamine receptor 2A (Homo sapiens, UniProt P28223); test: Inhibitory concentration against human 5-HT2A receptor in BEK cells; type: cell-based
T2 sequence (P28223 whole entry): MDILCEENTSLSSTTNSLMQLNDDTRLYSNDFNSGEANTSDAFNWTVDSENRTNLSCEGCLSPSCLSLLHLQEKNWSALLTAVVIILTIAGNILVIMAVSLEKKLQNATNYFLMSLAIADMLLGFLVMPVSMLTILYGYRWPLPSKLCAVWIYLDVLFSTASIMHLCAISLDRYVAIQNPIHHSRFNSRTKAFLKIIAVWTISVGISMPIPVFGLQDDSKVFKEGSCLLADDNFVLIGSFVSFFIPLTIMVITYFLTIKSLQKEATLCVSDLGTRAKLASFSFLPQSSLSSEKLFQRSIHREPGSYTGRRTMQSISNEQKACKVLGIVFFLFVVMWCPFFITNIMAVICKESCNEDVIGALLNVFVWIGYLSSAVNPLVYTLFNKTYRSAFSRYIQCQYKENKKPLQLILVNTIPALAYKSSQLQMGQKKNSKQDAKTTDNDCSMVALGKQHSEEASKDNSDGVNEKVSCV

[4] = biological target: T2, 5-hydroxytryptamine receptor 2A; test: Binding affinity towards human 5-HT2A receptor in BEK cells; type: cell-based
[5] = biological target: D(2) dopamine receptor (Rattus norvegicus, UniProt P61169); test: Binding affinity towards Dopamine receptor D2 was determined in rat striatum using [3H]- spiperone as radioligand; type: tissue-based
Sequence of D(2) dopamine receptor (P61169 whole entry): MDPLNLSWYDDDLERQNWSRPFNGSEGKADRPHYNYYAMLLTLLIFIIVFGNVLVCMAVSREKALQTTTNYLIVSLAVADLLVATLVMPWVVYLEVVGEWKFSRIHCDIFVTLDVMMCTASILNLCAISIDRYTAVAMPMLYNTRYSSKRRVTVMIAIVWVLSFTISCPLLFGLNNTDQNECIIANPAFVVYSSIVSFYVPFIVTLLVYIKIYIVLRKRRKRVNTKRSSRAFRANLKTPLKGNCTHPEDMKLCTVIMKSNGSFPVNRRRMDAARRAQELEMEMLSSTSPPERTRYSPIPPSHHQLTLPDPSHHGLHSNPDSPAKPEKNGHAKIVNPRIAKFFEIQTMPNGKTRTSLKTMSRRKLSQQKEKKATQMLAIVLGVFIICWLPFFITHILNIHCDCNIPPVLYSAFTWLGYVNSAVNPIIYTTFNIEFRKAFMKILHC

[6] = biological target: T3, D(4) dopamine receptor (Homo sapiens, UniProt P21917); test: Binding affinity against human Dopamine receptor D4.2 in CHO cells; type: cell-based
T3 sequence (P21917 whole entry): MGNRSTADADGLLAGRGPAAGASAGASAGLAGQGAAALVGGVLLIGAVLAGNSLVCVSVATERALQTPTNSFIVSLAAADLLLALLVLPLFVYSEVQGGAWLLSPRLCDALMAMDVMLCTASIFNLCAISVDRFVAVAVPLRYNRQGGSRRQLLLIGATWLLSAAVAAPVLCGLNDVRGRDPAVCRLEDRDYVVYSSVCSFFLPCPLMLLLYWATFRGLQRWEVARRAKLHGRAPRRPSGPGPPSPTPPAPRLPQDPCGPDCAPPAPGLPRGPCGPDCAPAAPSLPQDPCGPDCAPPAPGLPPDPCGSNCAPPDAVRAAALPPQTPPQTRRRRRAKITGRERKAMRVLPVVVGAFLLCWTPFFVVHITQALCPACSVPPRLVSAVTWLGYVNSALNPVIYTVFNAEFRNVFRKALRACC

[7] = tested on: Rattus norvegicus; test: Compound at an intraperitoneal dose of 50 mg/Kg was tested for the inhibition of apomorphine-induced stereotypy in rat; type: functional; set-up: scale not given: the % may be the effect or the level left
[8] = tested on: Rattus norvegicus; test: Compound at an intraperitoneal dose of 60 mg/Kg was tested for the inhibition of apomorphine-induced stereotypy in rat; type: functional; set-up: scale not given: the % may be the effect or the level left
[9] = tested on: Rattus norvegicus; test: Percentage change in Social interaction when compound administered at a doe of 2.5 mg/kg ip in rats; type: functional; settings: route intraperitoneal
[10] = tested on: Rattus norvegicus; test: Percentage change in Social interaction when compound administered at a doe of 5 mg/kg ip in rats; type: functional; settings: route intraperitoneal
[11] = tested on: Rattus norvegicus; test: Percentage change in Total activity (anti psychotic) when compound administered at a doe of 1.25 mg/kg ip in rats; type: functional; settings: route intraperitoneal
[12] = tested on: Rattus norvegicus; test: Percentage change in Total activity (anti psychotic) when compound administered at a doe of 2.5 mg/kg ip in rats; type: functional; settings: route intraperitoneal
[13] = tested on: Rattus norvegicus; test: Percentage change in Social interaction when compound administered at a doe of 1.25 mg/kg ip in rats; type: functional; settings: route intraperitoneal
[14] = tested on: Rattus norvegicus; test: Percentage change in Total activity (anti psychotic) when compound administered at a doe of 5 mg/kg ip in rats; type: functional; settings: route intraperitoneal
[15] = tested on: Rattus norvegicus; test: Percentage change in chronic single unit sampling when compound given at a dose of 10 mg/kg ip (Expt-2); type: functional; settings: route intraperitoneal
[16] = tested on: Rattus norvegicus; test: Percentage change in chronic single unit sampling when compound given at a dose of 10 mg/kg ip in rats; type: functional; settings: route intraperitoneal
[17] = tested on: Rattus norvegicus; test: Percentage change in chronic single unit sampling when compound given at a dose of 20 mg/kg ip in rats; type: functional; settings: route intraperitoneal
[18] = tested on: Rattus norvegicus; test: Percentage change in chronic single unit sampling when compound given at a dose of 20 mg/kg ip in rats (Expt-2); type: functional; settings: route intraperitoneal
[19] = tested on: Rattus norvegicus; test: Anti psychotic effect Social interaction when compound administered at a doe of 1.25 mg/kg ip in rats; type: functional; settings: route intraperitoneal
[20] = tested on: Rattus norvegicus; test: Anti psychotic effect Social interaction when compound administered at a doe of 2.5 mg/kg ip in rats; type: functional; settings: route intraperitoneal
[21] = tested on: Rattus norvegicus; test: Anti psychotic effect Social interaction when compound administered at a doe of 5 mg/kg ip in rats; type: functional; settings: route intraperitoneal
[22] = tested on: Rattus norvegicus; test: Total activity (anti psychotic) when compound administered at a doe of 2.5 mg/kg ip in rats; type: functional; settings: route intraperitoneal
[23] = tested on: Rattus norvegicus; test: Total activity (anti psychotic) when compound administered at a doe of 5 mg/kg ip in rats; type: functional; settings: route intraperitoneal
[24] = tested on: Rattus norvegicus; test: Total activity (anti psychotic) when compound administered at a doe of 1.25 mg/kg ip in rats; type: functional; settings: route intraperitoneal
[25] = biological target: T3, D(4) dopamine receptor
Description: Inhibitory concentration against human Dopamine receptor D4.2 in CHO cells

[26] = tested on: Rattus norvegicus; test: Compound at an intraperitoneal dose of 20 mg/Kg was tested for the inhibition of apomorphine-induced stereotypy in rat; type: functional; set-up: scale not given: the % may be the effect or the level left
[27] = tested on: Rattus norvegicus; test: Compound at an intraperitoneal dose of 30 mg/Kg was tested for the inhibition of apomorphine-induced stereotypy in rat; type: functional; set-up: scale not given: the % may be the effect or the level left
[28] = tested on: Rattus norvegicus; test: Percentage change in chronic single unit sampling when compound given at a dose of 10 mg/kg ip in rats(Expt-2); type: functional; settings: route intraperitoneal
[29] = tested on: Rattus norvegicus; test: Percentage change in Social interaction when compound administered at a doe of 10 mg/kg ip in rats; type: functional; settings: route intraperitoneal
[30] = tested on: Rattus norvegicus; test: Percentage change in Total activity (anti psychotic) when compound administered at a doe of 10 mg/kg ip in rats; type: functional; settings: route intraperitoneal
[31] = Compound at an intraperitoneal dose of 40 mg/Kg was tested for the inhibition of apomorphine-induced stereotypy in rat; type: functional; set-up: scale not given: the % may be the effect or the level left
[32] = tested on: Rattus norvegicus; test: Anti psychotic effect Social interaction when compound administered at a doe of 10 mg/kg ip in rats; type: functional; settings: route intraperitoneal
[33] = tested on: Rattus norvegicus; test: Total activity (anti psychotic) when compound administered at a doe of 10 mg/kg ip in rats; type: functional; settings: route intraperitoneal
[34] = tested on: Rattus norvegicus; test: Percentage change in Total activity (anti psychotic) when compound administered at a doe of 0.05 mg/kg ip in rats; type: functional; settings: route intraperitoneal
[35] = tested on: Rattus norvegicus; test: Percentage change in Total activity (anti psychotic) when compound administered at a doe of 0.125 mg/kg ip in rats; type: functional; settings: route intraperitoneal
[36] = tested on: Rattus norvegicus; test: Percentage change in Social interaction when compound administered at a doe of 0.05 mg/kg ip in rats; type: functional; settings: route intraperitoneal
[37] = tested on: Rattus norvegicus; test: Percentage change in Social interaction when compound administered at a doe of 0.125 mg/kg ip in rats; type: functional; settings: route intraperitoneal
[38] = tested on: Rattus norvegicus; test: Percentage change in chronic single unit sampling when compound given at a dose of 0.5 mg/kg ip in rats; type: functional; settings: route intraperitoneal
[39] = tested on: Rattus norvegicus; test: Percentage change in chronic single unit sampling when compound given at a dose of 0.5 mg/kg ip in rats (Expt-2); type: functional; settings: route intraperitoneal
[40] = Intraperitoneal effective dose required for inhibition of apomorphine-induced stereotypy in rat; type: functional; settings: ip
[41] = tested on: Rattus norvegicus; test: Anti psychotic effect Social interaction when compound administered at a doe of 0.05 mg/kg ip in rats; type: functional; settings: route intraperitoneal
[42] = tested on: Rattus norvegicus; test: Anti psychotic effect Social interaction when compound administered at a doe of 0.125 mg/kg ip in rats; type: functional; settings: route intraperitoneal
[43] = tested on: Rattus norvegicus; test: Total activity (anti psychotic) when compound administered at a doe of 0.125 mg/kg ip in rats; type: functional; settings: route intraperitoneal

SMILES | IC50 [1] [nM] | IC50 [2] [nM] | IC50 [3] [nM] | Ki [4] [nM] | IC50 [5] [nM] | Ki [6] [nM] | Change [9] [%] | Change [10] [%] | Change [11] [%] | Change [12] [%] | Change [13] [%] | Change [14] [%] | Change [16] [%] | Change [17] [%] | Change [18] [%] | Social interaction [19] | Social interaction [20] | Social interaction [21] | Total activity [22] | Total activity [23] | other results
CC1SC(C)(C)C(=O)N1CCCCN1CCN(c2csc3cc(F)ccc23)CC1 (centres undefined) | 61 | 56 | 17 | 8 |  | 5 | 9 |  | 1 | -32 | 14 |  | -34 | -57 | 32 | 114 | 109.1 |  | 96 |  | Change [28]: 14%; Total activity [24]: 144.3; IC50 [25]: 29 nM
CN1CCN(C2=Nc3cc(Cl)ccc3Nc3ccccc32)CC1 [CLOZAPINE] |  |  |  |  |  |  |  | 14 |  |  |  | -18 |  | -79 | 37 |  |  | 123.3 |  | 140.3 | Change [29]: 40%; Change [30]: -15%; Activity [31]: 33%; Social interaction [32]: 151.3; Total activity [33]: 146.3
O=C(CCCN1CCC(O)(c2ccc(Cl)cc2)CC1)c1ccc(F)cc1 [HALOPERIDOL] |  |  |  |  |  |  |  |  |  |  |  |  |  |  |  |  |  |  |  |  | Change [34]: -11%; Change [35]: -22%; Change [36]: -19%; Change [37]: -32%; Change [38]: -35%; Change [39]: -30%; ED50 [40]: 0.6 mg/kg; Social interaction [41]: 77.2; Social interaction [42]: 65.6; Total activity [43]: 112.3

The next lines start with results.

IC50 [1] [nM] | IC50 [2] [nM] | IC50 [3] [nM] | Ki [4] [nM] | IC50 [5] [nM] | Ki [6] [nM] | SMILES | Change [9] [%] | Change [10] [%] | Change [11] [%] | Change [12] [%] | Change [13] [%] | Change [14] [%] | Change [16] [%] | Change [17] [%] | Change [18] [%] | Social interaction [19] | Social interaction [20] | Social interaction [21] | Total activity [22] | Total activity [23] | other results
189 | 131 | 8 | 4 | 954 | 117 | CC1SC2(CCCC2)C(=O)N1CCCCN1CCN(c2csc3cc(F)ccc23)CC1 (centres undefined) | 14 | 5 | 1 | 18 | 13 | -36 | -27 | -39 | -8 | 108 | 106.5 | 97.3 | 106.3 | 82.1 | Activity [7]: 20%; Activity [8]: 50%; Change [15]: -12%; Total activity [24]: 146; IC50 [25]: 713 nM
3 | 9.6 |  |  | 154 |  | CC1SC2(CCCC2)C(=O)N1CCCCN1CCN(c2nsc3ccccc23)CC1 (centres undefined) |  |  |  |  |  |  |  |  |  |  |  |  |  |  | Activity [26]: 10%; Activity [27]: 100%
